Source: ChEMBL document CHEMBL1131786, “Synthesis of probes for the active site of leucine dehydrogenase” (Bioorg Med Chem Lett, 1999)

What was measured:
Sporosarcina = assay: Compound was evaluated for the inhibition of Phenylalanine dehydrogenase of Sporosarcina species; details: concentration not given here
Bacillus = assay: Compound was evaluated for the inhibition of Leucine dehydrogenase of Bacillus species; details: concentration not given here

Row | inhibition (Sporosarcina) [%] | inhibition (Bacillus) [%] | Compound
1 | 53 | – | C[C@H](O)[C@H](N)C(=O)O
2 | – | 93 | COCO[C@@H](C)C(=O)C(=O)O
3 | 61 | – | C[C@@H](O)[C@H](N)C(=O)O
4 | – | 8 | COCO[C@H](C)C(=O)C(=O)O
